Reference: patent EP4389751A1, “HETEROCYCLIC COMPOUNDS AND USES THEREOF” (Kumquat Biosciences Inc., priority 2021, dated 2024)
Where two headings read alike, the source gives them in different places.

Legend:
GP2D cells = test: Cell proliferation assay (CellTiter-Glo), K-Ras G12D cells; format: cell-based; details: read-out: Inhibition of GP2D Cells (IC50)
Method in brief: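 CellTiter-Glo luminescence, taken roughly 5 days after dosing, measured growth of G12D-mutant GP2D cells in DMEM/2 mM glutamine/10% FBS. Compound dilution series (e.g., 9 points, 3-fold) added the day after plating. Four-parameter fitting gave IC50.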

K-Ras G12S = target: T1, K-Ras G12S (Homo sapiens, UniProt P01116, G12S); test: HTRF assay of the K-Ras / SOS1 interaction; format: biochemical; details: IC50 (against K-Ras G12D) to IC50 (against K-Ras G12S)
T1 construct: made in house; host or cells: E. coli (e.g., BL21 (DE3))
Method in brief: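 Compounds (duplicates, 10 µM to 0.01 µM) were incubated ≥~10 min with Eu-labelled GST-K-Ras G12S and XL665-labelled His-hSOS1 in HEPES pH 7.4 buffer containing NaCl, DTT, BSA and Igepal. Disruption measured as HTRF emission ratio 665/620 nm, fitted to IC50.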

A549 cells = test: Cell proliferation assay (CellTiter-Glo), K-Ras G12S cells; format: cell-based; details: for IC50: Homo sapiens; for ratio of IC50 against a G12D cell line to IC50 against a G12S cell line: K-Ras G12D cell line such as GP2D relative to K-Ras G12S cell line such as A549, greater than 1, 2, 3, 4, 5, 10, 15 or even greater, 8640 min
Method in brief: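 A549 cells (K-Ras G12S) in RPMI-1640 with 10% FBS, seeded in standard or ultra-low-attachment plates and dosed next day with a 10-point 3-fold series. Viability read about 6 days later by CellTiter-Glo luminescence. IC50 from four-parameter fit.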

[1] = A549, A549 cells (K-Ras G12S), bin 500 nM to 5 µM, read-out: Inhibition of A549 Cells (IC50)
[2] = A549, A549 cells (K-Ras G12S), bin ≤ 500 nM, read-out: Inhibition of A549 Cells (IC50)
[3] = A549, read-out: Inhibition of A549 Cells (IC50)

T1 sequence (P01116 1-188 isoform P01116-2 G12S): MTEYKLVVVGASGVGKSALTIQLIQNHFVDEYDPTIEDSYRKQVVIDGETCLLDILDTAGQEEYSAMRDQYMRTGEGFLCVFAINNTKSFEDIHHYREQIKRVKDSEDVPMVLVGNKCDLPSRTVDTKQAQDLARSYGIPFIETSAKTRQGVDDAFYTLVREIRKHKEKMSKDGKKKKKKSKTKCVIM

Nc1nc2c(-c3c(Cl)cc4c(N5CCN(C(=O)n6cncn6)CC(F)(F)C5)nc(OC[C@@]56CCCN5C[C@H](F)C6)nc4c3F)ccc(F)c2s1 [Compound A141, (4-(7-(2-amino-7-fluorobenzo[d]thiazol-4-yl)-6-chloro-8-fluoro-2-(((2R,7aS)-2-fluorotetrahydro-1H-pyrrolizin-7a(5H)-yl)methoxy)quinazolin-4-yl)-6,6-difluoro-1,4-diazepan-1-yl)(1H-1,2,4-triazol-1-yl)methanone]
IC50 (GP2D cells; GP2D cells (K-Ras G12D)): 1000 to 10000 nM
Ratio of IC50 KRAS G12D vs. IC50 KRAS G12S (K-Ras G12S): A (A: indicates that the ratio of IC50 against KrasG12D vs. IC50 against KrasG12S is 1-fold or greater)
IC50 (A549 cells; [1]): 500 to 5000 nM

Cc1nc(C)n(C(=O)N2CC3(COCCN(c4nc(OC[C@@]56CCCN5C[C@H](F)C6)nc5c(F)c(-c6ccc(F)c7sc(N)c(C#N)c67)c(Cl)cc45)C3)C2)n1 [Compound A185, 2-amino-4-(6-chloro-4-(2-(3,5-dimethyl-1H-1,2,4-triazole-1-carbonyl)-6-oxa-2,9-diazaspiro[3.6]decan-9-yl)-8-fluoro-2-(((2R,7aS)-2-fluorotetrahydro-1H-pyrrolizin-7a(5H)-yl)methoxy)quinazolin-7-yl)-7-fluorobenzo[b]thiophene-3-carbonitrile]
IC50 (GP2D cells; GP2D cells (K-Ras G12D)): 1000 to 10000 nM
Ratio of IC50 KRAS G12D vs. IC50 KRAS G12S (K-Ras G12S): A (A: indicates that the ratio of IC50 against KrasG12D vs. IC50 against KrasG12S is 1-fold or greater)
IC50 (A549 cells; [2]): ≤ 500 nM

COCCN1CCC(Oc2nc(N3CCCCC4(CN(C(=O)n5cncn5)C4)C3)c3cc(Cl)c(-c4ccc(F)c5sc(N)c(C#N)c45)c(F)c3n2)CC1 [Compound A119, 4-(4-(2-(1H-1,2,4-triazole-1-carbonyl)-2,6-diazaspiro[3.6]decan-6-yl)-6-chloro-8-fluoro-2-((1-(2-methoxyethyl)piperidin-4-yl)oxy)quinazolin-7-yl)-2-amino-7-fluorobenzo[b]thiophene-3-carbonitrile]
IC50 (GP2D cells; GP2D cells (K-Ras G12D)): 1000 to 10000 nM
Ratio of IC50 KRAS G12D vs. IC50 KRAS G12S (K-Ras G12S): A (A: indicates that the ratio of IC50 against KrasG12D vs. IC50 against KrasG12S is 1-fold or greater)
IC50 (A549 cells; [1]): 500 to 5000 nM

Cc1nc(C)n(C(=O)N2CC3(C2)CN(c2nc(OC[C@@]45CCCN4C[C@H](F)C5)nc4c(F)c(-c5ccc(F)c6sc(N)c(C#N)c56)c(Cl)cc24)CCO3)n1 [Compound A283, 2-amino-4-(6-chloro-4-(2-(3,5-dimethyl-1H-1,2,4-triazole-1-carbonyl)-5-oxa-2,8-diazaspiro[3.5]nonan-8-yl)-8-fluoro-2-(((2R,7aS)-2-fluorotetrahydro-1H-pyrrolizin-7a(5H)-yl)methoxy)quinazolin-7-yl)-7-fluorobenzo[b]thiophene-3-carbonitrile]
IC50 (GP2D cells; GP2D cells (K-Ras G12D)): 1000 to 10000 nM
Ratio of IC50 KRAS G12D vs. IC50 KRAS G12S (K-Ras G12S): A (A: indicates that the ratio of IC50 against KrasG12D vs. IC50 against KrasG12S is 1-fold or greater)
IC50 (A549 cells; [2]): ≤ 500 nM

Cc1ncn(C(=O)N2CC3(CCCN(c4nc(OC[C@@]56CCCN5C[C@H](F)C6)nc5c(F)c(-c6ccc(F)c7sc(N)c(C#N)c67)c(Cl)cc45)C3)C2)n1 [Compound A102, 2-amino-4-(6-chloro-8-fluoro-2-(((2R,7aS)-2-fluorotetrahydro-1H-pyrrolizin-7 a(5H)-yl)methoxy)-4-(2-(3-methyl-1H-1,2,4-triazole-1-carbonyl)-2,6-diazaspiro[3.5]nonan-6-yl)quinazolin-7-yl)-7-fluorobenzo[b]thiophene-3-carbonitrile]
IC50 (GP2D cells; GP2D cells (K-Ras G12D)): 1000 to 10000 nM
Ratio of IC50 KRAS G12D vs. IC50 KRAS G12S (K-Ras G12S): A (A: indicates that the ratio of IC50 against KrasG12D vs. IC50 against KrasG12S is 1-fold or greater)
IC50 (A549 cells; [2]): ≤ 500 nM
ratio of IC50 against a G12D cell line to IC50 against a G12S cell line (A549 cells): greater than 1

N#Cc1cn(C(=O)N2C3CCC2CN(c2nc(OC[C@@]45CCCN4C[C@H](F)C5)nc4c(F)c(-c5ccc(F)c6sc(N)nc56)c(Cl)cc24)C3)cn1 [Compound A123, 1-(3-(7-(2-amino-7-fluorobenzo[d]thiazol-4-yl)-6-chloro-8-fluoro-2-(((2R,7aS)-2-fluorotetrahydro-1H-pyrrolizin-7a(5H)-yl)methoxy)quinazolin-4-yl)-3,8-diazabicyclo[3.2. 1]octane-8-carbonyl)-1H-imidazole-4-carbonitrile]
IC50 (GP2D cells; GP2d): ≤ 1000 nM
Ratio of IC50 KRAS G12D vs. IC50 KRAS G12S (K-Ras G12S): A (A: indicates that the ratio of IC50 against KrasG12D vs. IC50 against KrasG12S is 1-fold or greater)
IC50 (A549 cells; [3]): 500 to 5000 nM

Cc1ncn(C(=O)N2CC3(C2)CN(c2nc(OC[C@@]45CCCN4C[C@H](F)C5)nc4c(F)c(-c5ccc(F)c6sc(N)c(C#N)c56)c(Cl)cc24)CCO3)n1 [Compound A148, 2-amino-4-(6-chloro-8-fluoro-2-(((2R,7aS)-2-fluorotetrahydro-1H-pyrrolizin-7 a(5H)-yl)methoxy)-4-(2-(3-methyl-1H-1,2,4-triazole-1-carbonyl)-5-oxa-2,8-diazaspiro[3.5]nonan-8-yl)quinazolin-7-yl)-7-fluorobenzo[b]thiophene-3-carbonitrile]
IC50 (GP2D cells; GP2D cells (K-Ras G12D)): 1000 to 10000 nM
Ratio of IC50 KRAS G12D vs. IC50 KRAS G12S (K-Ras G12S): A (A: indicates that the ratio of IC50 against KrasG12D vs. IC50 against KrasG12S is 1-fold or greater)
IC50 (A549 cells; [2]): ≤ 500 nM

N#Cc1c(N)sc2c(F)ccc(-c3c(Cl)cc4c(N5CCOC6(CN(C(=O)n7ccnn7)C6)C5)nc(OC[C@@]56CCCN5C[C@H](F)C6)nc4c3F)c12 [Compound A195, 4-(4-(2-(1H-1,2,3-triazole-1-carbonyl)-5-oxa-2,8-diazaspiro[3.5]nonan-8-yl)-6-chloro-8-fluoro-2-(((2R,7aS)-2-fluorotetrahydro-1H-pyrrolizin-7a(5H)-yl)methoxy)quinazolin-7-yl)-2-amino-7-fluorobenzo[b]thiophene-3-carbonitrile]
IC50 (GP2D cells; GP2D cells (K-Ras G12D)): 1000 to 10000 nM
Ratio of IC50 KRAS G12D vs. IC50 KRAS G12S (K-Ras G12S): A (A: indicates that the ratio of IC50 against KrasG12D vs. IC50 against KrasG12S is 1-fold or greater)
IC50 (A549 cells; [2]): ≤ 500 nM

N#Cc1nccn1C(=O)N1C2CCC1CN(c1nc(OC[C@@]34CCCN3C[C@H](F)C4)nc3c(F)c(-c4ccc(F)c5sc(N)nc45)c(Cl)cc13)C2 [Compound A170, 1-(3-(7-(2-amino-7-fluorobenzo[d]thiazol-4-yl)-6-chloro-8-fluoro-2-(((2R,7aS)-2-fluorotetrahydro-1H-pyrrolizin-7a(5H)-yl)methoxy)quinazolin-4-yl)-3,8-diazabicyclo[3.2. 1]octane-8-carbonyl)-1H-imidazole-2-carbonitrile]
IC50 (GP2D cells; GP2d): ≤ 1000 nM
Ratio of IC50 KRAS G12D vs. IC50 KRAS G12S (K-Ras G12S): A (A: indicates that the ratio of IC50 against KrasG12D vs. IC50 against KrasG12S is 1-fold or greater)
IC50 (A549 cells; [3]): 500 to 5000 nM

N#Cc1c(N)sc2c(F)ccc(-c3c(Cl)cc4c(N5CCC6C5CN6C(=O)n5cncn5)nc(OC[C@@]56CCCN5C[C@H](F)C6)nc4c3F)c12 (stereo partly drawn) [Compound A183, 4-(4-(6-(1H-1,2,4-triazole-1-carbonyl)-2,6-diazabicyclo[3.2.0]heptan-2-yl)-6-chloro-8-fluoro-2-(((2R,7aS)-2-fluorotetrahydro-1H-pyrrolizin-7a(5H)-yl)methoxy)quinazolin-7-yl)-2-amino-7-fluorobenzo[b]thiophene-3-carbonitrile]
IC50 (GP2D cells; GP2D cells (K-Ras G12D)): ≤ 1000 nM
Ratio of IC50 KRAS G12D vs. IC50 KRAS G12S (K-Ras G12S): A (A: indicates that the ratio of IC50 against KrasG12D vs. IC50 against KrasG12S is 1-fold or greater)
IC50 (A549 cells; [2]): ≤ 500 nM
ratio of IC50 against a G12D cell line to IC50 against a G12S cell line (A549 cells): greater than 1

Nc1nc2c(-c3c(Cl)cc4c(N5CCN(C(=O)n6cncn6)CC5)nc(OC[C@@]56CCCN5C[C@H](F)C6)nc4c3F)ccc(F)c2s1 [Compound A146, (4-(7-(2-amino-7-fluorobenzo[d]thiazol-4-yl)-6-chloro-8-fluoro-2-(((2R,7aS)-2-fluorotetrahydro-1H-pyrrolizin-7a(5H)-yl)methoxy)quinazolin-4-yl)piperazin-1-yl)(1H-1,2,4-triazol-1-yl)methanone]
IC50 (GP2D cells; GP2D cells (K-Ras G12D)): ≤ 1000 nM
Ratio of IC50 KRAS G12D vs. IC50 KRAS G12S (K-Ras G12S): A (A: indicates that the ratio of IC50 against KrasG12D vs. IC50 against KrasG12S is 1-fold or greater)
IC50 (A549 cells; [1]): 500 to 5000 nM

N#Cc1c(N)sc2c(F)ccc(-c3c(Cl)cc4c(N[C@H]5C[C@H]6CC[C@@H](C5)N6C(=O)n5cncn5)nc(OC[C@@]56CCCN5C[C@H](F)C6)nc4c3F)c12 [Compound A257, 4-(4-(((1R,3r,5S)-8-(1H-1,2,4-triazole-1-carbonyl)-8-azabicyclo[3.2.1]octan-3-yl)amino)-6-chloro-8-fluoro-2-(((2R,7aS)-2-fluorotetrahydro-1H-pyrrolizin-7 a(5H)-yl)methoxy)quinazolin-7-yl)-2-amino-7-fluorobenzo[b]thiophene-3-carbonitrile]
IC50 (GP2D cells; GP2d): 1000 to 10000 nM
Ratio of IC50 KRAS G12D vs. IC50 KRAS G12S (K-Ras G12S): A (A: indicates that the ratio of IC50 against KrasG12D vs. IC50 against KrasG12S is 1-fold or greater)
IC50 (A549 cells; [3]): 500 to 5000 nM
